Experimental data from article PMC11845761, “Intestinal human carboxylesterase 2 (CES2) expression rescues drug metabolism and most metabolic syndrome phenotypes in global Ces2 cluster knockout mice” (Acta Pharmacologica Sinica, 2024).

Legend:
[1] = Plasma pharmacokinetics of vinorelbine and deacetylvinorelbine after i.v. vinorelbine in CES2-modified mice; conditions: i.v. vinorelbine 10 mg/kg; for AUC0-4h / AUC0-4h ratio (× 10^−3) (deacetylvinorelbine/vinorelbine) / Cmax / Tmax: plasma
Experimental: In order to minimize variation among individuals, mice were fasted for 3 h before drug was administered orally or intravenously. […] For the vinorelbine 4-h experiment, 6-7 male mice received vinorelbine intravenously (10 mg/kg, 5 μL/g) or orally (10 mg/kg, 10 μL/g) using a blunt-ended needle. […] Time points of termination were chosen to allow both reasonable assessment of the plasma exposure of the compound and its main metabolites, and adequate measurement of tissue concentrations. In order to minimize the generation and use of mice, and as no pronounced sex differences were expected, female mice were used for the capecitabine studies and male mice for the vinorelbine studies. Tail vein blood sample collection (~50 μL) was performed using microvettes containing dipotassium-EDTA. All blood samples were rapidly placed on ice to limit any ongoing hydrolysis. At the last time point in each experiment (2 or 4 h), mice were anesthetized with 5% isoflurane and blood was collected by cardiac puncture. Cardiac puncture blood samples (600–800 μL) were collected in Eppendorf tubes containing heparin as an anticoagulant. The mice were then sacrificed by cervical dislocation and brain, liver, kidney, lung, small intestine and testis were rapidly removed. Plasma was isolated from the blood by centrifugation at 9000 × g for 6 min at 4 °C, and the plasma fraction was collected and stored at −30 °C until analysis. Organs were homogenized with 4% (w/v) bovine serum albumin and stored at −30 °C until analysis. Relative metabolite-to-parental drug ratio after drug administration was calculated by determining metabolite tissue concentration relative to corresponding parental drug concentration at the last time point.
(§1) Concentrations of capecitabine (and its metabolites) and vinorelbine (and its metabolite) in mouse plasma samples and organ homogenates were determined using two independent validated high-performance liquid chromatography-tandem mass spectrometry assays.
Pharmacokinetic parameters were calculated by non-compartmental methods using the PK solver software. The area under the plasma concentration-time curve (AUC) was calculated using the trapezoidal rule, without extrapolating to infinity. The peak plasma concentration (Cmax) and the time of maximum plasma concentration (Tmax) were estimated from the original (individual mouse) data. One-way analysis of variance (ANOVA) was used when multiple groups were compared and the Tukey’s test post hoc correction was used to accommodate multiple testing. The two-sided unpaired Student’s t-test was used when treatments or differences between two specific groups were compared. Kruskal-Wallis rank test was used for semi-quantitative assessment for (H&E)-staining of white adipose tissue and Oil Red O-staining of liver. All statistical analyses were performed using the software GraphPad Prism 8 (GraphPad Software Inc., La Jolla, CA, USA). All the linear data were log-transformed before statistical tests were applied. Differences were considered statistically significant when P < 0.05. All data are presented as mean ± SD.

[2] = Tissue concentrations of vinorelbine and deacetylvinorelbine 4 h after oral vinorelbine in CES2-modified mice; type: in vivo, mouse; conditions: oral vinorelbine 10 mg/kg
Experimental: For capecitabine 2-h experiments, 6–7 female mice received oral capecitabine (500 mg/kg, 10 μL/g), and tail vein blood samples were collected at 0.125, 0.25, 0.5 and 1 h after drug administration. For the vinorelbine 4-h experiment, 6-7 male mice received vinorelbine intravenously (10 mg/kg, 5 μL/g) or orally (10 mg/kg, 10 μL/g) using a blunt-ended needle. Tail vein blood samples were collected at 0.125, 0.25, 0.5, 1 and 2 h after drug administration. […] At the last time point in each experiment (2 or 4 h), mice were anesthetized with 5% isoflurane and blood was collected by cardiac puncture. […] Plasma was isolated from the blood by centrifugation at 9000 × g for 6 min at 4 °C, and the plasma fraction was collected and stored at −30 °C until analysis.
as §1
Pharmacokinetic parameters were calculated by non-compartmental methods using the PK solver software. […] Differences were considered statistically significant when P < 0.05. All data are presented as mean ± SD.

CCC1=C[C@@H]2CN(C1)Cc1c([nH]c3ccccc13)[C@@](C(=O)OC)(c1cc3c(cc1OC)N(C)[C@H]1[C@@](O)(C(=O)OC)[C@H](O)[C@]4(CC)C=CCN5CC[C@]31[C@@H]54)C2 [Deacetylvinorelbine, 4’-O-deacetylvinorelbine]
AUC0-4h ([1]; male Ces2^–/– mice): 10.1 ± 2.3 ng·h/mL
AUC0-4h ratio (× 10^−3) (deacetylvinorelbine/vinorelbine) ([1]; male Ces2^–/– mice): 1.7 ± 0.2 × 10^−3
Cmax ([1]; male Ces2^–/– mice): 5.9 ± 1.4 ng/mL
Tmax ([1]; male Ces2^–/– mice): 7.8 ± 0 min
plasma AUC0-4h, fold decrease vs wild-type ([1]; male Ces2^–/–A mice): 55.5 fold
AUC0-4h ([1]; male Ces2^–/–A mice): 12.0 ± 3.8 ng·h/mL
AUC0-4h ratio (× 10^−3) (deacetylvinorelbine/vinorelbine) ([1]; male Ces2^–/–A mice): 2.2 ± 0.5 × 10^−3
Cmax ([1]; male Ces2^–/–A mice): 7.6 ± 2.7 ng/mL
Tmax ([1]; male Ces2^–/–A mice): 15 ± 11.4 min
plasma AUC0-4h, fold decrease vs wild-type ([1]; male Ces2^–/–V mice): 41.1 fold
AUC0-4h ([1]; male Ces2^–/–V mice): 16.2 ± 8.4 ng·h/mL
AUC0-4h ratio (× 10^−3) (deacetylvinorelbine/vinorelbine) ([1]; male Ces2^–/–V mice): 1.7 ± 0.2 × 10^−3
Cmax ([1]; male Ces2^–/–V mice): 8.2 ± 3.5 ng/mL
Tmax ([1]; male Ces2^–/–V mice): 10.2 ± 4.2 min
AUC0-4h ([1]; male wild-type mice): 666 ± 138 ng·h/mL
AUC0-4h ratio (× 10^−3) (deacetylvinorelbine/vinorelbine) ([1]; male wild-type mice): 110 ± 60 × 10^−3
Cmax ([1]; male wild-type mice): 346 ± 104 ng/mL
Tmax ([1]; male wild-type mice): 27.6 ± 45.6 min
CSI (small intestine tissue concentration) ([2]; male Ces2^–/– mice): 625 ± 219 ng/g
CSIC (small intestine contents concentration) ([2]; male Ces2^–/– mice): 1091 ± 405 ng/g
Ccolon (colon concentration) ([2]; male Ces2^–/– mice): 5.0 ± 2.1 ng/g
Cliver (liver concentration) ([2]; male Ces2^–/– mice): 82 ± 29 ng/g
Colon Ratio (x 10^-3) (deacetylvinorelbine /vinorelbine) ([2]; male Ces2^–/– mice): 8.4 ± 1.5 x 10^-3
Liver Ratio (x 10^-3) (deacetylvinorelbine /vinorelbine) ([2]; male Ces2^–/– mice): 15 ± 7.5 x 10^-3
Small intestine Ratio (x 10^-3) (deacetylvinorelbine /vinorelbine) ([2]; male Ces2^–/– mice): 34 ± 10.0 x 10^-3
Small intestine contents Ratio (x 10^-3) (deacetylvinorelbine /vinorelbine) ([2]; male Ces2^–/– mice): 6.7 ± 1.4 x 10^-3
liver deacetylvinorelbine-to-vinorelbine ratio, fold decrease vs wild-type ([2]; male Ces2^–/– mice): 333 fold
small intestine tissue deacetylvinorelbine-to-vinorelbine ratio ([2]; male Ces2^–/– mice): 0.034 ± 0.010
CSI (small intestine tissue concentration) ([2]; male Ces2^–/–A mice): 748 ± 225 ng/g
CSIC (small intestine contents concentration) ([2]; male Ces2^–/–A mice): 1120 ± 623 ng/g
Ccolon (colon concentration) ([2]; male Ces2^–/–A mice): 6.0 ± 2.6 ng/g
Cliver (liver concentration) ([2]; male Ces2^–/–A mice): 162 ± 52 ng/g
Colon Ratio (x 10^-3) (deacetylvinorelbine /vinorelbine) ([2]; male Ces2^–/–A mice): 7.8 ± 2.6 x 10^-3
Liver Ratio (x 10^-3) (deacetylvinorelbine /vinorelbine) ([2]; male Ces2^–/–A mice): 19 ± 1.7 x 10^-3
Small intestine Ratio (x 10^-3) (deacetylvinorelbine /vinorelbine) ([2]; male Ces2^–/–A mice): 39 ± 8.0 x 10^-3
Small intestine contents Ratio (x 10^-3) (deacetylvinorelbine /vinorelbine) ([2]; male Ces2^–/–A mice): 5.9 ± 1.6 x 10^-3
liver deacetylvinorelbine-to-vinorelbine ratio, fold decrease vs wild-type ([2]; male Ces2^–/–A mice): 263 fold
small intestine tissue deacetylvinorelbine-to-vinorelbine ratio ([2]; male Ces2^–/–A mice): 0.039 ± 0.008
CSI (small intestine tissue concentration) ([2]; male Ces2^–/–V mice): 808 ± 578 ng/g
CSIC (small intestine contents concentration) ([2]; male Ces2^–/–V mice): 957 ± 441 ng/g
Ccolon (colon concentration) ([2]; male Ces2^–/–V mice): 8.1 ± 4.8 ng/g
Cliver (liver concentration) ([2]; male Ces2^–/–V mice): 178 ± 110 ng/g
Colon Ratio (x 10^-3) (deacetylvinorelbine /vinorelbine) ([2]; male Ces2^–/–V mice): 13 ± 3.7 x 10^-3
Liver Ratio (x 10^-3) (deacetylvinorelbine /vinorelbine) ([2]; male Ces2^–/–V mice): 21 ± 7.8 x 10^-3
Small intestine Ratio (x 10^-3) (deacetylvinorelbine /vinorelbine) ([2]; male Ces2^–/–V mice): 49 ± 15 x 10^-3
Small intestine contents Ratio (x 10^-3) (deacetylvinorelbine /vinorelbine) ([2]; male Ces2^–/–V mice): 8.4 ± 3.4 x 10^-3
liver deacetylvinorelbine-to-vinorelbine ratio, fold decrease vs wild-type ([2]; male Ces2^–/–V mice): 238 fold
small intestine tissue deacetylvinorelbine-to-vinorelbine ratio ([2]; male Ces2^–/–V mice): 0.049 ± 0.015
CSI (small intestine tissue concentration) ([2]; male wild-type mice): 9590 ± 4337 ng/g
CSIC (small intestine contents concentration) ([2]; male wild-type mice): 15491 ± 4320 ng/g
Ccolon (colon concentration) ([2]; male wild-type mice): 369 ± 240 ng/g
Cliver (liver concentration) ([2]; male wild-type mice): 7589 ± 2725 ng/g
Colon Ratio (x 10^-3) (deacetylvinorelbine /vinorelbine) ([2]; male wild-type mice): 1000 ± 390 x 10^-3
Liver Ratio (x 10^-3) (deacetylvinorelbine /vinorelbine) ([2]; male wild-type mice): 5000 ± 1000 x 10^-3
Small intestine Ratio (x 10^-3) (deacetylvinorelbine /vinorelbine) ([2]; male wild-type mice): 880 ± 220 x 10^-3
Small intestine contents Ratio (x 10^-3) (deacetylvinorelbine /vinorelbine) ([2]; male wild-type mice): 220 ± 73 x 10^-3
liver deacetylvinorelbine-to-vinorelbine ratio ([2]; male wild-type mice): 5.0 ± 1.0
small intestine tissue deacetylvinorelbine-to-vinorelbine ratio ([2]; male wild-type mice): 0.88 ± 0.22
